We go through one compound from publication PMC8662641, “Site-Specific Labeling of Endogenous Proteins Using CoLDR Chemistry” (Journal of the American Chemical Society, 2021).

For this assay, the target named is BTK kinase domain (Homo sapiens, UniProt Q06187). The experiment in a line: Time-dependent labeling of BTK, kinact and Ki of 1b. Also noted: BTK kinase domain was expressed and purified as previously reported; made in house. In kind it is binding. The procedure: To assess the kinetic parameters of labeling, we performed a time-dependent incubation experiment of BTK (200 nM) with various concentrations of 1b (300–2000 nM, 20 mM Tris, pH 8, 14 °C; […]. page 9:
Figure S5. Determination of kinact and Ki parameters of CoLDR probe 1b. A. Depletion of unlabelled BTK (200 nM) […]
reaction was monitored by LC-MS. B. The rate constants as extrapolated from A. as a function of the concentration […]
(1 picture or pasted object on this page, not shown here)
Analysis was done using MaxQuant 1.6.3.4. The sequence of BTK was used for the analysis. The digestion enzyme was set to Trypsin with a maximum number of missed cleavages of 0.
Carbamidomethyl and the modification by the molecule were included as variable modifications on cysteine. The “Re-quantify” option was enabled. Contaminants were included. […] The triplicate measured for each compound (or for DMSO-treated protein) was analyzed separately.
Following MaxQuant analysis, only fully cleaved peptides were quantified and cysteine-containing peptides that were not modified by either iodoacetamide or compound were ignored.
The intensity for each peptide was calculated as the average of the three triplicates. […]
from the stock solution. […] The labeling percentage for a compound was determined as the labeling of a specific compound (alone or together with other compounds) divided by the overall detected protein species. […]

BTK kinase domain, sequence (Q06187 402-655 limits assumed): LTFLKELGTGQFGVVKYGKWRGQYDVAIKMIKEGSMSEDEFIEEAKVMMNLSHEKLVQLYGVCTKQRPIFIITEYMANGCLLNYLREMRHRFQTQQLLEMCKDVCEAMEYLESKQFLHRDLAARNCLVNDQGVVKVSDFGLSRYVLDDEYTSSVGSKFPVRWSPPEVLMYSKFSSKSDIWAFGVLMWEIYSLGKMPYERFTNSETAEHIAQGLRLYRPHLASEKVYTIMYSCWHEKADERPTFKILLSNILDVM

`C#CCCNC(=O)C(=C)CN1CCC[C@@H](n2nc(-c3ccc(Oc4ccccc4)cc3)c3c(N)ncnc32)C1` [1b]: the “reversible binding component weaker than ibrutinib” value (1b Ki compared with reported ibrutinib Ki) is “about 5 fold”. Further, the kinact (BTK 200 nM, 1b 300–2000 nM, 20 mM Tris, pH 8, 14 °C) was 0.0278 s⁻¹.

Usually kinact stands for the rate constant of inactivation at saturating inhibitor.
